In patent publication US20140200175A1, “SUPPRESSION OF TOXIN PRODUCTION OF C[…]” (University of Central Florida Research Foundation, Inc., priority 2012, published 2014):
Entries after “also recorded” stand apart in the source; their conditions may differ.

Experiments:
C. difficile spore = settings: alongside taurocholate, reference (45); cited from earlier work
tcdB = settings: 16.7 mM, mRNA harvested after 72 hours of growth
tcdA = settings: 16.7 mM, mRNA harvested after 72 hours of growth
C. difficile (VPI10463) [1] = settings: stationary phase (24 to 72 hours), 16.7 mM; versus control and the other amino acids
Experimental: Optical density (FIG. 1A) was followed for 72 hours after inoculation. Total protein (FIG. 1B) and extracellular protein (FIG. 1C) were quantified in cell free supernatants according to the method described by Bradford (46).
Optical density measurements of cultures at 600 nm were determined using a Molecular Devices SpectraMax 190 96-well plate reader at the times indicated for each experiment. Cultures were centrifuged at 16,100×g for five minutes. The resulting cell free supernatants were filtered (0.2 μm) and assayed for protein as described by Bradford (46) using bovine serum albumin (Thermo Scientific, Rockford, Ill.) as a standard.

[2] = system: C. difficile (VPI10463) toxin A and toxin B; assay: Extracellular toxin in cell free supernatants by SDS-PAGE with GelCode Blue staining; type: cell-based, Clostridium difficile; settings: 16.7 mM; for toxin levels in media supernatants (band larger than 225 kDa): 72 hour growth period, 7.5% gel, versus control
Experimental: FIG. 2 illustrates that toxin production occurs earlier and is increased with the addition of L-proline or glycine to the culture media of C. difficile, but is diminished with L-hydroxyproline. C. difficile (VPI10463) culture media was collected by centrifugation at the indicated time points. Cell free supernatants were filtered (0.2 μm filter) and equal volumes (50 μL) were separated by SDS-PAGE and stained overnight with GelCode Blue. Gel migration was compared with that of purified toxin A (List Biologicals).
For analysis of extracellular toxins, 50 μL aliquots of cell free supernatant from each C. difficile culture across a 72 hour growth study was analyzed by sodium dodecyl sulfate-polyacrylamide gel electrophoresis (SDS-PAGE) (7.5% polyacrylamide). The separated proteins were visualized after staining overnight with GelCode Blue (Thermo Scientific, Waltham, Mass.).

C. difficile = settings: added to the culture medium, concentration-dependent, reference (32); cited from earlier work
C. difficile (VPI10463) [3] = assay: Growth curve of C. difficile in rich medium (TYGSe), optical density at 600 nm; type: cell-based, Clostridium difficile; settings: VPI10463, rich medium plus 16.7 mM amino acid, 72 hour growth period

NCC(=O)O [glycine]
spore germination (C. difficile spore): potent spore co-germinant
tcdB transcript relative to control cells (tcdB): nine
tcdA transcript relative to control cells (tcdA): nine
extracellular protein levels (C. difficile (VPI10463) [1]): significantly higher
toxin levels in media supernatants (band larger than 225 kDa) [2]: higher toxin levels than the control
toxin produced earlier ([2]; onset of toxin band): approximately 24 hours

N[C@@H](CS)C(=O)O [L-cysteine]
intracellular toxin levels (C. difficile): significantly reduced

O=C(O)[C@@H]1CCCN1 [L-proline]
intracellular toxin levels (C. difficile): significantly reduced
tcdB transcript relative to control cells (tcdB): approximately three
tcdA transcript relative to control cells (tcdA): approximately three
toxin levels in media supernatants (band larger than 225 kDa) [2]: higher toxin levels than the control

O=C(O)[C@@H]1CC(O)CN1 (stereo partly drawn) [L-hydroxyproline, L-4-hydroxyproline]
reduction in tcdB transcription (tcdB; relative to control cells): ≥ 75%
growth (in words) (C. difficile (VPI10463) [3]): largest increase in growth; also recorded: comparable growth
reduction in tcdA transcription (tcdA; relative to control cells): ≥ 75%
toxin levels in media supernatants (band larger than 225 kDa) [2]: no band corresponding to toxin was visible
